Results: US20170273922A1, “UREA AND BIS-UREA BASED COMPOUNDS AND ANALOGUES THEREOF USEFUL IN THE TREATMENT OF ANDROGEN RECEPTOR MEDIATED DISEASES OR DISORDERS” (THE ROYAL INSTITUTION FOR THE ADVACEMENT OF LEARNING/MCGILL …, priority 2014, published 2017)

Legend:
Type in all cases: cell-based
LNCaP cells = test: MTT assay (cytotoxicity), LNCaP cells; conditions: 72 h, Table 2.2
Protocol: (§1) MTT assays: LNCaP, 22Rv1, Du145, H1975, A549, MB231 and MCF-7 cells are maintained in RPMI 1640 supplemented with 10% FBS. Cells were seeded at a density of 6-7×10^3 cells per well in 96-well plates. After overnight incubation, cells in fresh RPMI 1640 supplemented with 10% FBS were exposed to DMSO vehicle control or test compounds at designated concentrations for 72 h. Viable cells were evaluated by MTT assays. Experiments were performed in triplicate and repeated at least twice.

DU145 cells = test: MTT assay (cytotoxicity), DU145 cells; conditions: 72 h, Table 2.2
Protocol: as §1

[1] = MTT assay (cytotoxicity), LNCaP cells; conditions: human, LNCaP cells
Protocol: as §1

[2] = MTT assay (cytotoxicity), 22Rv1 cells; conditions: human, 22Rv1 cells
Protocol: as §1

SMILES: O=C(N/C=C/c1cccc(C(F)(F)F)c1)Nc1cccc(C(F)(F)F)c1 [Compound 403]
- IC50 (LNCaP cells): 12.3 µM
- IC50 (DU145 cells): > 20 µM

SMILES: O=C(N/C=C/c1ccccc1C(F)(F)F)Nc1ccc([N+](=O)[O-])c(C(F)(F)F)c1 [Compound 404]
- IC50 (LNCaP cells): 9.3 µM
- IC50 (DU145 cells): 16.4 µM

SMILES: N#Cc1ccc(NC(=O)N/C=C/c2ccccc2C(F)(F)F)cc1 [Compound 405]
- IC50 (LNCaP cells): 3.4 µM
- IC50 (DU145 cells): 8.3 µM

SMILES: O=C(N/C=C/c1ccccc1C(F)(F)F)Nc1cccc(C(F)(F)F)c1 [Compound 406]
- IC50 (LNCaP cells): 14.4 µM

SMILES: O=C(N/C=C/c1ccc(C(F)(F)F)cc1)Nc1ccc([N+](=O)[O-])c(C(F)(F)F)c1 [Compound 407]
- IC50 (LNCaP cells): 9.6 µM
- IC50 (DU145 cells): 15.3 µM

SMILES: O=C(N/C=C/c1ccc(C(F)(F)F)cc1)Nc1cccc(C(F)(F)F)c1 [Compound 408]
- IC50 (LNCaP cells): 15.6 µM

SMILES: O=C(N/C=C/c1cccc(C(F)(F)F)c1)Nc1ccccc1 [Compound 413]
- IC50 (LNCaP cells): > 20 µM

SMILES: COc1cccc(NC(=O)N/C=C/c2cccs2)c1 [Compound 425]
- IC50 at 72 h ([1]; 72 h, Table 2.4): > 20 µM

SMILES: O=C(N/C=C/c1cccs1)Nc1ccc2c(c1)OCO2 [Compound 426]
- IC50 at 72 h ([1]; 72 h, Table 2.4): > 20 µM

SMILES: O=C(N/C=C/c1c[nH]cn1)Nc1ccc([N+](=O)[O-])c(C(F)(F)F)c1 [Compound 454]
- IC50 at 72 h ([1]; 72 h, Table 2.4): > 10 µM

SMILES: O=C(N/C=C/c1cccc(C(F)(F)F)c1)NCc1cccc(C(F)(F)F)c1 [Compound 460]
- IC50 at 72 h ([1]; 72 h, Table 2.4): 7.9 µM

SMILES: O=C(N/C=C/c1cc(C(F)(F)F)cc(C(F)(F)F)c1)Nc1ccc2[nH]ccc2c1 [Compound 516]
- IC50 at 72 h ([1]; 72 h, Table 2.3): > 10 µM
- IC50 at 72 h ([2]; 72 h, Table 2.3): > 10 µM

SMILES: O=C(Nc1cc(N2CCOCC2)cc(C(F)(F)F)c1)Nc1ccc(NC(=O)c2ccccc2F)c(C(F)(F)F)c1 [Compound 861]
- IC50 at 72 h ([1]; 72 h treatment, Table 6.1): 9.7 µM

SMILES: CN1CCN(c2cc(NC(=O)Nc3ccc(NC(=O)c4ccccc4F)c(C(F)(F)F)c3)cc(C(F)(F)F)c2)CC1 [Compound 862]
- IC50 at 72 h ([1]; 72 h treatment, Table 6.1): 3.4 µM

SMILES: O=C(N/C=C/c1cccc(OC(F)(F)F)c1)Nc1ccncn1 [Compound 875]
- IC50 at 72 h ([1]; 72 h treatment, Table 6.1): 4.6 µM
- IC50 at 72 h ([2]; 72 h treatment, Table 6.1): 8.8 µM

SMILES: O=C(Nc1cc(F)cc(C(F)(F)F)c1)Nc1ccc(NC(=O)c2ccccc2F)c(C(F)(F)F)c1 [Compound 878]
- IC50 at 72 h ([1]; 72 h treatment, Table 6.1): 3.4 µM
- IC50 at 72 h ([2]; 72 h treatment, Table 6.1): 3.2 µM

SMILES: O=C(Nc1cccc(C(F)(F)F)c1)Nc1ccc(NC(=O)c2ccc(N3CCOCC3)cc2F)c(C(F)(F)F)c1 [Compound 879]
- IC50 at 72 h ([1]; 72 h treatment, Table 6.1): 6.3 µM
- IC50 at 72 h ([2]; 72 h treatment, Table 6.1): 6.8 µM

SMILES: O=C(Nc1ccc(NC(=O)c2ccccc2F)c(C(F)(F)F)c1)Nc1ccccc1C(F)(F)F [Compound 896]
- IC50 at 72 h ([1]; 72 h treatment, Table 6.1): 5.2 µM
- IC50 at 72 h ([2]; 72 h treatment, Table 6.1): 18.9 µM

SMILES: O=C(Nc1ccc(C(F)(F)F)cc1)Nc1ccc(NC(=O)c2ccccc2F)c(C(F)(F)F)c1 [Compound 897]
- IC50 at 72 h ([1]; 72 h treatment, Table 6.1): 1.9 µM
- IC50 at 72 h ([2]; 72 h treatment, Table 6.1): 7 µM

SMILES: O=C(Nc1cccc(C(F)(F)F)c1)Nc1ccc(NC(=O)Nc2ccc(F)cc2)c(C(F)(F)F)c1 [Compound 898]
- IC50 at 72 h ([1]; 72 h treatment, Table 6.1): 1.4 µM
- IC50 at 72 h ([2]; 72 h treatment, Table 6.1): 5.1 µM

SMILES: O=C(Nc1cccc(C(F)(F)F)c1)Nc1ccc(NC(=O)c2c(F)cccc2F)c(C(F)(F)F)c1 [Compound 900]
- IC50 at 72 h ([1]; 72 h treatment, Table 6.1): > 10 µM
- IC50 at 72 h ([2]; 72 h treatment, Table 6.1): 10.4 µM

SMILES: O=C(Nc1cccc(C(F)(F)F)c1)Nc1ccc(NC(=O)c2cc(F)ccc2F)c(C(F)(F)F)c1 [Compound 901]
- IC50 at 72 h ([1]; 72 h treatment, Table 6.1): 6.6 µM
- IC50 at 72 h ([2]; 72 h treatment, Table 6.1): 4.7 µM

SMILES: O=C(Nc1cccc(C(F)(F)F)c1)Nc1ccc(NC(=O)c2ccc(F)cc2F)c(C(F)(F)F)c1 [Compound 902]
- IC50 at 72 h ([1]; 72 h treatment, Table 6.1): 7.4 µM
- IC50 at 72 h ([2]; 72 h treatment, Table 6.1): 4.5 µM

SMILES: O=C(Nc1cccc(C(F)(F)F)c1)Nc1ccc(NC(=O)c2cc(C(F)(F)F)ccc2F)c(C(F)(F)F)c1 [Compound 903]
- IC50 at 72 h ([1]; 72 h treatment, Table 6.1): 6.8 µM
- IC50 at 72 h ([2]; 72 h treatment, Table 6.1): 5 µM

SMILES: O=C(Nc1cccc(C(F)(F)F)c1)Nc1ccc(C(=O)Nc2ccc(F)cc2)c(C(F)(F)F)c1 [Compound 904]
- IC50 at 72 h ([1]; 72 h treatment, Table 6.1): 4.1 µM
- IC50 at 72 h ([2]; 72 h treatment, Table 6.1): 3.2 µM

SMILES: O=C(Nc1cccc(C(F)(F)F)c1)Nc1ccc(NC(=O)Nc2cccc(F)c2)c(C(F)(F)F)c1 [Compound 905]
- IC50 at 72 h ([1]; 72 h treatment, Table 6.1): 5.5 µM
- IC50 at 72 h ([2]; 72 h treatment, Table 6.1): 11.4 µM

SMILES: O=C(Nc1cccc(C(F)(F)F)c1)Nc1ccc(NC(=O)c2cc(Cl)ccc2F)c(C(F)(F)F)c1 [Compound 907]
- IC50 at 72 h ([1]; 72 h treatment, Table 6.1): 4.2 µM
- IC50 at 72 h ([2]; 72 h treatment, Table 6.1): 4.2 µM

SMILES: O=C(Nc1cccc(C(F)(F)F)c1)Nc1ccc(NC(=O)c2cccnc2F)c(C(F)(F)F)c1 [Compound 911]
- IC50 at 72 h ([1]; 72 h treatment, Table 6.1): 13.8 µM
- IC50 at 72 h ([2]; 72 h treatment, Table 6.1): 10 µM

SMILES: O=C(Nc1cccc(C(F)F)c1)Nc1ccc(NC(=O)c2ccccc2F)c(C(F)(F)F)c1 [Compound 912]
- IC50 at 72 h ([1]; 72 h treatment, Table 6.1): 11.6 µM
- IC50 at 72 h ([2]; 72 h treatment, Table 6.1): 16 µM

SMILES: O=C(Nc1cccc(C(F)(F)F)c1)Nc1ccc(F)c(NC(=O)c2c(F)cccc2F)c1 [Compound 913]
- IC50 at 72 h ([1]; 72 h treatment, Table 6.1): 12.3 µM
- IC50 at 72 h ([2]; 72 h treatment, Table 6.1): 14.2 µM
